The source of these data is patent US20020168436A1, “Decursinol or derivative thereof as analgesic agent” (priority 2000, published 2002).

Assay [1] concerns mice administered with β-amyloid(1-42). The experiment in a line: Y-maze test in mice given β-amyloid(1-42) into the cerebral ventricle. Particulars: for alternation behavior (%): compared with the group given β-amyloid(1-42) only. It is filed as in vivo, mouse. The procedure:
(§1) The administration of β-amyloid(1-42) to a mouse was carried out in accordance with the method described by Laursen & Belknap(J. Pharmacol. Methods, 16, 355-357 (1986)). Specifically, 5 μl of phosphate-buffered saline containing 1.85 μg of β-amyloid(1-42) was put in a 50 μl Hamilton syringe fitted with a 26 gauge needle, the tip of the needle was inserted into the bregma of the mouse and then the β-amyloid(1-42) solution was administered thereto. Each mouse of a control group received an equal amount of β-amyloid(42-1) in place of β-amyloid(1-42). A passive avoidance test was carried out at days 1-2 (day 1: training, day 2: test) and a Y-maze test, at days 3-4 (day 3: training, day 4: test) after the administration.
Spontaneous alternation behavior of a mouse was examined by a Y-maze test in accordance with the method described in Starter et al., Psychopharmacology, 94, 491-495 (1988) as follows.
The Y-maze consisted of three arms shaped like Y. A test mouse was placed in one of the arms such that it faced the arm's terminal and allowed to roan freely through the three arms for […]. The number of alternation was determined by counting the number of occasions the mouse passed the three arms consecutively. Spontaneous alternation behavior was determined as the percentage of the alternation number based on the total number of arm entries.
Further, Y-maze tests were carried out employing the above-prepared mice as in Reference Example 3.
Forty 4- to 5-week old mice each weighing 20 to 25 g were divided into four groups of equal number. Decursinol was dissolved in corn oil, mixed with a mouse fodder, and the mice of two groups were provided with the resulting fodder for 4 weeks at a daily dose of 7.5 mg decursinol/kg or 15 mg decursinol/kg. The mice of the other two groups were provided with a normal mouse fodder containing an equal amount of corn oil as above for 4 weeks. Thereafter, the mice of one of the two normal fodder groups were administered, into their cerebral ventricle, with 1.85 μg of β-(42-1) (“control group”) and the mice of the remaining three groups, with β-amyloid(1-42) (Aβ1-42), as in Reference Example 1. Then, a passive avoidance test and a Y-maze test were carried out for each group of mice as in Reference Examples 2 and 3, respectively, and the data attained were averaged for each group.

Assay [2] shares this test system. Kind of assay: Passive avoidance test in mice given β-amyloid(1-42) into the cerebral ventricle. It is filed as in vivo, mouse. Particulars: for dementia-preventive effect in passive avoidance test: FIGS. 7A and 7B. The procedure: as §1
In order to examine the learning and memory-retention ability of a mouse, a passive avoidance test was carried out in accordance with the method described in Song et al., J. Neurochem., 71, 875-878 (1998), as follows.
A passive avoidance case equipped with a light room and a dark room was prepared, the floor of the dark room being designed to deliver an electrical shock to a test animal. First, a mouse was put in the light room and, upon entering the dark room, it received an electrical shock at 0.25 mA for 1 sec. Twenty-four hours after the training, the mouse was put in the light room again and the time it took to enter the dark room was measured as a passive avoidance time. The maximum time was set at 300 sec., i.e., in case when the mouse took more than 300 sec. to enter the dark room, the passive avoidance time was determined to be 300 sec.
Forty 4- to 5-week old mice each weighing 20 to 25 g were divided into four groups of equal number. The Angelicae gigas Nakai extract prepared in Example 1 was dissolved in water to concentrations of 0.08% (w/v) and 0.1% (w/v), respectively, and the mice of two groups were provided with the resulting solutions instead of water for 4 weeks at a daily dose of 8 ml of the solution/mouse. The mice of the other two groups were provided with normal drinking water for 4 weeks. Thereafter, the mice of one of the two normal drinking water groups were administered into their cerebral ventricle with 1.85 μg of β-amyloid(42-1) (“control group”) and the mice of the remaining three groups, with β-amyloid(1-42) (Aβ1-42), as in Reference Example 1. Then, a passive avoidance test was carried out for each group of mice as in Reference Example 2 and the data attained were averaged for each group.
Fifty 4- to 5-week old mice each weighing 20 to 25 g were divided into five groups by equal number. Ferulic acid was dissolved in water to concentrations of 0.002 % (w/v), 0.004 % (w/v) and 0.006 % (w/v), respectively, and the mice of three groups were provided with the resulting solutions instead of water for 4 weeks at a daily dose of 8 ml of the solution/mouse. The mice of the other two groups were provided with normal drinking water for 4 weeks. Thereafter, the mice of one of two normal drinking water groups were administered into their cerebral ventricle with 1.85 μg of β-(42-1) (“control group”) and the mice of the remaining four groups, with β-amyloid(1-42) (Aβ1-42), as in Reference Example 1. Then, a passive avoidance test was carried out for each group of mice as in Reference Example 2 and the data attained were averaged for each group.
Forty 4- to 5-week old mice each weighing 20 to 25 g were divided into four groups of equal number. […]

A further assay has as its system OX-42. Kind of assay: Immunohistochemical staining of OX-42 in pyriform cortex and amygdaloid nucleus. It is filed as in vivo, mouse. As to conditions: 0.006% (w/v) in drinking water for 4 weeks; 1 day after β-amyloid(1-42); compared with β-amyloid(1-42) only; FIGS. 8c and 8f. The procedure:
4- to 5-week old mice each weighing 20 to 25 g was divided into three groups. Ferulic acid was dissolved in water to a concentration of 0.006% (w/v), and the mice of one group were provided with the resulting solution instead of water for 4 weeks. The mice of other two groups were provided with normal drinking water for 4 weeks. Thereafter, the mice of one of two normal drinking water groups were administered, into their cerebral ventricle, with 1.85 μg of β-amyloid(42-1) (“control group”) and the mice of the remaining two groups, with β-amyloid(1-42) (Aβ1-42), as in Reference Example 1.
One day after the administration of β-amyloid, each of the mice was anesthetized with sodium pentobarbital and its abdomen was incised. The mouse was fixed by passing 4% paraformaldehyde through its left ventricle and its brain was excised.
In accordance with the method described in Cho et al., J. Comp. Neurol., 369: 264-276(1996), a section was prepared from the excised brain and immunohistochemical staining was carried out in order to stain […] in the pyriform cortex and the amygdaloid nucleus by employing 1:500 dilution of anti-OX-42 antibody (Halan (Sera-Lab)).

For assay [3], the system named is primary mouse cortical culture. Kind of assay: β-amyloid(1-42)-induced leakage of lactate dehydrogenase (LDH) from cultured neurons. The format is cell-based. As to conditions: 100 μM, 30 minutes before 25 μM β-amyloid(1-42); 24 and 48 hours; compared with β-amyloid(1-42) group; FIG. 10.
Method: The culture of mouse cerebral neurons was divided into three groups. Neurons of one group received no treatment (control group). […] The degree of damage in neurons was determined by measuring the concentration of lactate dehydrogenase (LDH), which was released from the damaged or disrupted neurons into the culture medium, in accordance with the method of Wie et al. Samples of the culture medium were taken at 24 and 48 hours after the administration of β-amyloid(1-42), respectively, and their LDH concentrations were measured with a microplate reader.
For assay [4], the system named is choline acetyltransferase (ChAT). The experiment in a line: Immunohistochemical staining of ChAT in septal nucleus. The format is in vivo, mouse. Particulars: 0.006% (w/v) in drinking water for 4 weeks; 5 days after β-amyloid(1-42); FIG. 9c. The procedure: Three groups of mice were administered with ferulic acid and/or β-amyloid in accordance with the method of (1). 5 days after the administration of β-amyloid, immunohistochemical staining was carried out according to the method of (1) except for employing 1:750 dilution of anti-choline-acetyltransferase (ChAT) antibody (Chemicon) in order to stain ChAT, an enzyme for acetylcholine synthesis, in the septal nucleus wherein acetylcholine neurons are distributed.

Consider `CC1(C)Oc2cc3oc(=O)ccc3cc2C[C@@H]1O` [decursinol], for which, in assay [1] (7.5 or 15 mg/kg daily in fodder for 4 weeks, FIG. 6C), the “number of arm entries (spontaneous movement)” value was “nearly the same for all groups”. The “alternation behavior (%)” value in assay [1] (7.5 or 15 mg/kg daily in fodder for 4 weeks, FIG. 6B) is “higher and increased dose-dependently”. For the same compound, the “decrease in the passive avoidance response time due to β-amyloid(1-42)” value in assay [2] (7.5 or 15 mg/kg daily in fodder for 4 weeks, FIG. 6A) is “prevented”. In assay [2] (alone in a low amount: 2 mg/kg or 3 mg/kg decursinol), the “dementia-preventive effect in passive avoidance test” value is “no dementia-preventive effect”.
Consider `COc1cc(/C=C/C(=O)O)ccc1O` [ferulic acid], for which the OX-42 staining entry with OX-42 is listed as “much less pronounced”. Also, the “LDH concentration in culture medium” value in assay [3] is listed as “much lower”. The “number of arm entries (spontaneous movement)” value in assay [1] (0.006% (w/v) for 1 to 4 weeks, FIG. 4B) was “nearly the same for all groups”. Also, in assay [1] (0.006% (w/v) for 1 to 4 weeks, FIG. 4A), the “alternation behavior (%)” value was “higher and increased in proportion to the period of administration”. In addition, the “decrease in the passive avoidance response time” value in assay [2] (0.002, 0.004 and 0.006% (w/v) in drinking water for 4 weeks before β-amyloid(1-42), FIG. 3A) is on record as “prevented dose-dependently”. Moreover, the “passive avoidance response time” value in assay [2] (0.006% (w/v) in drinking water for 1, 2, 3 and 4 weeks, FIG. 3B) is “becomes increasingly higher with the period of administration”. Moreover, the “dementia-preventive effect in passive avoidance test” value in assay [2] (alone in a low amount: 0.002% or 0.003% (w/v) ferulic acid) is “no dementia-preventive effect”. Also, the ChAT staining entry in assay [4] is recorded as “the decrease was suppressed”.
